One assay has as its target T1, BRD4 BD1 (Homo sapiens, UniProt O60885).
T1 construct: made in house
In words: AlphaScreen binding assay, BRD4 Bromodomain 1. Put shortly:
(§1)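 Compound dilution series were mixed with His-tagged BRD4 bromodomain and biotinylated tetra-acetylated H4 (1-21) peptide at pH 7.3 (BD1 and peptide at 50 nM, BD2 and peptide at 100 nM). Donor and acceptor beads were then added, and plates were equilibrated at least 1 h before reading. IC50 values were fitted with a four-parameter logistic model.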
(In general: Bead proximity is the source of the signal in Alpha formats.)

The target in a further assay is T2, BRD4 BD2 (Homo sapiens, UniProt O60885).
T2 construct: made in house
In words: AlphaScreen binding assay, BRD4 Bromodomain 2. Put shortly:
as §1

The term IC50 denotes the concentration at which inhibition is half-maximal. A lower IC50 goes with higher potency.

In the case of `CC(=O)N1c2ccc(-c3ncccn3)cc2N(C(=O)c2ccco2)C[C@@H]1C` [Example I-383], the IC50 was 1000 to 10000 nM at BRD4 BD1 and 50 to 500 nM on BRD4 BD2.

On to `CC(=O)N1c2ccc(-c3cnn(C4COC4)c3)cc2N(C(=O)OCC2CC2(C)C)C[C@@H]1C` (stereo partly drawn) [Example I-73, (2,2-dimethylcyclopropyl)methyl (3S)-4-acetyl-3-methyl-7-(1-(oxetan-3-yl)-1H-pyrazol-4-yl)-3,4-dihydroquinoxaline-1(2H)-carboxylate], for which the IC50 at BRD4 BD1 lay within 1000 to 10000 nM; at BRD4 BD2, 50 to 500 nM.

Consider `CC(=O)N1c2ccc(-c3cn(C)nn3)cc2N(C(=O)C2CC2)C[C@@H]1C` [Example I-453], for which the IC50 on BRD4 BD1 lay within 1000 to 10000 nM; on BRD4 BD2 it was 50 to 500 nM.

As to `CC(=O)N1c2ccccc2N(S(=O)(=O)c2ccn(C)n2)C[C@@H]1C` [Example I-933], the IC50 on BRD4 BD1 was above 10000 nM; at BRD4 BD2, above 500 nM.

As to `CC(=O)N1c2ccccc2N(S(=O)(=O)c2ccc(C)cc2C)C[C@@H]1C` [Example I-949], the IC50 was above 10000 nM at BRD4 BD1 and above 500 nM on BRD4 BD2.

In the case of `CC(=O)N1c2ccccc2N(Cc2ccc(O)cc2)C[C@@H]1C` [Example I-923], the IC50 on BRD4 BD1 was above 10000 nM; on BRD4 BD2, above 500 nM.

Turning to `CC(=O)N1c2ccc(-c3ccc(S(C)(=O)=O)cc3)cc2N(C(=O)OC2COC2)C[C@@H]1C` [Example I-497], the concentration for half-maximal inhibition (IC50) on BRD4 BD1 was 1000 to 10000 nM; at BRD4 BD2 it was above 500 nM.

For `CC(=O)N1c2ccc(-c3ccc(S(C)(=O)=O)cc3)cc2N(C(=O)c2ncoc2C)C[C@@H]1C` [Example I-884], the values for the IC50 on BRD4 BD1 and on BRD4 BD2 were above 10000 nM and above 500 nM, respectively.

For `CC(=O)N1c2ccccc2N(Cc2ccccc2)C[C@@H]1C` [Example I-909], the IC50 is above 10000 nM at BRD4 BD1 and 50 to 500 nM at BRD4 BD2.

With `C[C@H]1CN(C(=O)c2ccco2)c2cc(-c3ccc(S(C)(=O)=O)cc3)ccc2N1S(C)(=O)=O` [Example I-96, (S)-furan-2-yl(3-methyl-4-(methylsulfonyl)-7-(4-(methylsulfonyl)phenyl)-3,4-dihydroquinoxalin-1(2H)-yl)methanone], the IC50 on BRD4 BD1 is above 10000 nM; at BRD4 BD2, above 500 nM.

Consider `CC(=O)N1c2ccc(-c3cnoc3)cc2N(C(=O)c2ccco2)C[C@@H]1C` [Example I-390], for which the IC50 is 1000 to 10000 nM at BRD4 BD1 and 50 to 500 nM at BRD4 BD2.

As to `CC(=O)N1c2ccccc2N(C(=O)c2cc3ccccc3o2)C[C@@H]1C` [Example I-751], the IC50 on BRD4 BD1 was above 10000 nM; on BRD4 BD2, above 500 nM.

In the case of `CC(=O)N1c2ccccc2N(C(=O)c2ccc(C(C)C)nc2)C[C@@H]1C` [Example I-729], the IC50 on BRD4 BD1 was above 10000 nM; on BRD4 BD2 it was above 500 nM.

In the case of `CC(=O)N1c2ccc(-c3cnn(C)c3C)cc2N(C(=O)c2ccco2)C[C@@H]1C` [Example I-270], the IC50 on BRD4 BD1 lay within 1000 to 10000 nM; at BRD4 BD2, 50 to 500 nM.

Consider `CC(=O)N1c2ccc(-c3ccc(S(C)(=O)=O)cc3)cc2N(C(=O)Nc2ccccc2Cl)C[C@@H]1C` [Example I-973], for which the figures for the IC50 on BRD4 BD1 and on BRD4 BD2 were 1000 to 10000 nM and 50 to 500 nM, respectively.

On to `CC(=O)Nc1cccc(C(=O)N2C[C@H](C)N(C(C)=O)c3ccc(-c4ccc(S(C)(=O)=O)cc4)cc32)c1` [Example I-889], for which the IC50 was above 10000 nM on BRD4 BD1 and above 500 nM at BRD4 BD2.

In the case of `CC(=O)N1c2ccc(-c3cnn(C4COC4)c3)cc2N(C(=O)OCC2(C)COC2)C[C@@H]1C` [Example I-61, (S)-(3-methyloxetan-3-yl)methyl 4-acetyl-3-methyl-7-(1-(oxetan-3-yl)-1H-pyrazol-4-yl)-3,4-dihydroquinoxaline-1(2H)-carboxylate], the IC50 on BRD4 BD1 is 1000 to 10000 nM; on BRD4 BD2, above 500 nM.

Take `CC(=O)N1c2ccccc2N(S(=O)(=O)Cc2ccc(Cl)cc2)C[C@@H]1C` [Example I-962]: the IC50 on BRD4 BD1 is above 10000 nM; at BRD4 BD2 it was above 500 nM.

With `CC(=O)N1c2ccc(-c3ccc4cn(C)nc4c3)cc2N(C(=O)c2ccco2)C[C@@H]1C` [Example I-840], the IC50 at BRD4 BD1 lay within 1000 to 10000 nM; at BRD4 BD2, 50 to 500 nM.

Consider `CC(=O)N1c2ccc(-c3cnn(-c4nc5ccccc5o4)c3)cc2N(c2nc3ccccc3o2)C[C@@H]1C` [Example I-56, (S)-1-(4-(benzo[d]oxazol-2-yl)-6-(1-(benzo[d]oxazol-2-yl)-1H-pyrazol-4-yl)-2-methyl-3,4-dihydroquinoxalin-1(2H)-yl)ethanone], for which the IC50 is above 10000 nM at BRD4 BD1 and above 500 nM at BRD4 BD2.

Regarding `CC(=O)N1c2ccccc2N(S(=O)(=O)C2CC2)C[C@@H]1C` [Example I-952], the IC50 at BRD4 BD1 was above 10000 nM; at BRD4 BD2, above 500 nM.

Regarding `COC(=O)N1c2ccc(-c3ccc(N4CCCS4(=O)=O)cc3)cc2N(C(=O)Oc2cccnc2)C[C@@H]1C` [Example I-1287], the IC50 was 1000 to 10000 nM at BRD4 BD1 and above 500 nM on BRD4 BD2.

In the case of `C[C@H]1CN(C(=O)C2CC2)c2cc(-c3ccc(C4(O)COC4)cc3)ccc2N1C(=O)C1CC1` [Example I-444], the values for the IC50 on BRD4 BD1 and at BRD4 BD2 were 100 to 1000 nM and 50 to 500 nM, respectively.

As for `CC(=O)N1c2ccccc2N(C(=O)c2cnc3ccccc3c2)C[C@@H]1C` [Example I-752], the values for the IC50 on BRD4 BD1 and at BRD4 BD2 were above 10000 nM and above 500 nM, respectively.

As to `CC(=O)N1c2ccc(-c3cnn(C)n3)cc2N(C(=O)c2ccco2)C[C@@H]1C` [Example I-419], the half-maximal inhibitory concentration (IC50) at BRD4 BD1 is 100 to 1000 nM; at BRD4 BD2 it was above 500 nM.

`CC(=O)N1c2ccc(-c3ccc(S(C)(=O)=O)cc3)cc2N(C(=O)NC2CCCC2)C[C@@H]1C` [Example I-968]: the IC50 fell in the range of 1000 to 10000 nM on BRD4 BD1 and 50 to 500 nM at BRD4 BD2.

With `CC(=O)N1c2ccccc2N(C(=O)CSc2ccccc2)C[C@@H]1C` [Example I-727], the IC50 at BRD4 BD1 was above 10000 nM; on BRD4 BD2, above 500 nM.

In the case of `COc1cncc(CN2C[C@H](C)N(C(C)=O)c3ccccc32)c1` [Example I-914], the IC50 is above 10000 nM at BRD4 BD1 and above 500 nM on BRD4 BD2.

`CC(=O)N1c2ccc(-c3ccn4ccnc4n3)cc2N(C(=O)c2ccco2)C[C@@H]1C` [Example I-406]: the half-inhibitory concentration (IC50) at BRD4 BD1 is above 10000 nM; on BRD4 BD2 it was above 500 nM.

With `CC(=O)N1c2ccc(-c3cnn(C4CC4)c3)cc2N(C(=O)Oc2cncc3ccccc23)C[C@@H]1C` [Example I-525], the IC50 on BRD4 BD1 fell in the range of 1000 to 10000 nM; at BRD4 BD2 it was 50 to 500 nM.

In the case of `CC(=O)N1c2ccc(-c3cnc(N)cn3)cc2N(C(=O)C2CC2)C[C@@H]1C` [Example I-441], the half-maximal inhibitory concentration (IC50) on BRD4 BD1 was 100 to 1000 nM; at BRD4 BD2, 50 to 500 nM.

Regarding `CC(=O)N1c2ccc(-c3ccc(S(C)(=O)=O)cc3)cc2N(C(=O)c2ccc(N)cc2)C[C@@H]1C` [Example I-986], the IC50 on BRD4 BD1 was above 10000 nM; at BRD4 BD2, above 500 nM.

Regarding `COc1ncc(C)cc1OC(=O)N1C[C@H](C)N(C(C)=O)c2ccc(-c3cnn(C4CC4)c3)cc21` [Example I-1210], the IC50 at BRD4 BD1 lay within 1000 to 10000 nM; at BRD4 BD2, 50 to 500 nM.

As for `CC(=O)N1c2ccccc2N(Cc2cc(C)ccc2C)C[C@@H]1C` [Example I-903], the IC50 on BRD4 BD1 was above 10000 nM; at BRD4 BD2 it was above 500 nM.

Regarding `CC(=O)N1c2ccccc2N(Cc2ccc(-c3ccccc3)cc2)C[C@@H]1C` [Example I-916], the values for the IC50 on BRD4 BD1 and on BRD4 BD2 were above 10000 nM and above 500 nM, respectively.

In the case of `CC(=O)N1c2ccc(-c3c(C)noc3C)cc2N(C(=O)c2ccco2)C[C@@H]1C` [Example I-816], the IC50 at BRD4 BD1 was above 10000 nM; on BRD4 BD2, above 500 nM.

For `CC(=O)N1c2ccc(-c3c(C)n[nH]c3C)cc2N(C(=O)OC(C)C)CC1C` (centres unmarked) [Example I-333], the 50% inhibitory concentration (IC50) is 1000 to 10000 nM on BRD4 BD1 and above 500 nM at BRD4 BD2.

As for `CC(=O)N1c2ccc(-c3cnn(C4COC4)c3)cc2N(C(=O)OCCC2COC2)C[C@@H]1C` [Example I-67, (S)-2-(oxetan-3-yl)ethyl 4-acetyl-3-methyl-7-(1-(oxetan-3-yl)-1H-pyrazol-4-yl)-3,4-dihydroquinoxaline-1(2H)-carboxylate], the IC50 at BRD4 BD1 is above 10000 nM; on BRD4 BD2, above 500 nM.

`CC(=O)N1c2ccccc2N(Cc2ccccc2C)C[C@@H]1C` [Example I-896]: the IC50 on BRD4 BD1 is above 10000 nM; at BRD4 BD2, above 500 nM.

Turning to `CC(=O)N1c2ccc(-c3ccc(S(C)(=O)=O)cc3)cc2N(C(=O)c2ccccn2)C[C@@H]1C` [Example I-782], the IC50 is above 10000 nM at BRD4 BD1 and 50 to 500 nM at BRD4 BD2.

With `CC(=O)N1c2ccc(-c3cncnc3)cc2N(C(=O)c2ccco2)C[C@@H]1C` [Example I-821], the IC50 is above 10000 nM at BRD4 BD1 and 50 to 500 nM on BRD4 BD2.

Consider `CC(=O)N1c2ccc(-c3cnn(CC(=O)N(C)C)c3)cc2N(C(=O)C2CC2)C[C@@H]1C` [Example I-683], for which the IC50 lay within 1000 to 10000 nM at BRD4 BD1 and 50 to 500 nM on BRD4 BD2.

Consider `CC(=O)N1c2ccccc2N(Cc2ccc(N3CCOCC3)nc2)C[C@@H]1C` [Example I-922], for which the IC50 on BRD4 BD1 was above 10000 nM; on BRD4 BD2, above 500 nM.

For `CC(=O)N1c2ccc(-c3ccc(S(C)(=O)=O)cc3)cc2N(C(=O)Nc2ccsc2)C[C@@H]1C` [Example I-979], the IC50 at BRD4 BD1 was 1000 to 10000 nM; on BRD4 BD2, 50 to 500 nM.

`CC(=O)N1c2ccc(-c3ccc(C(F)(F)F)nc3)cc2N(C(=O)c2ccco2)C[C@@H]1C` [Example I-837]: the values for the 50% inhibitory concentration (IC50) at BRD4 BD1 and at BRD4 BD2 were 1000 to 10000 nM and 50 to 500 nM, respectively.

In the case of `CC(=O)N1c2ccc(-c3ccc(S(C)(=O)=O)cc3)cc2N(C(=O)Nc2ccc(Cl)cc2)C[C@@H]1C` [Example I-975], the IC50 at BRD4 BD1 is above 10000 nM; at BRD4 BD2, above 500 nM.

With `CC(=O)N1c2ccccc2N(C(=O)c2ccnc3ccccc23)C[C@@H]1C` [Example I-754], the IC50 at BRD4 BD1 is above 10000 nM; at BRD4 BD2 it was above 500 nM.

In the case of `CC(=O)N1c2ccc(-c3cnn(CCO)c3)cc2N(C(=O)Oc2ccc(F)cc2F)C[C@@H]1C` [Example I-1009], the values for the IC50 on BRD4 BD1 and at BRD4 BD2 were 1000 to 10000 nM and 50 to 500 nM, respectively.

Turning to `COc1ccc(-c2ccc3c(c2)N(C(=O)c2ccco2)C[C@H](C)N3C(C)=O)cn1` [Example I-833], the half-inhibitory concentration (IC50) was 1000 to 10000 nM at BRD4 BD1 and 50 to 500 nM on BRD4 BD2.

The values above are taken from US10703764B2, “Benzopiperazine compositions as BET bromodomain inhibitors” (FORMA Therapeutics, Inc., priority 2013, dated 2020).
